Experimental findings from publication PMC5461640 (Pharmacology Research & Perspectives, 2017) are described below.

In series [1] the target is T1, human OT receptors (Homo sapiens, UniProt P30559).
T1 construct: expressed in transfected cells; host or cells: HEK-293 cells (stably transformed, G418 selection)
T1 sequence (P30559 1-389): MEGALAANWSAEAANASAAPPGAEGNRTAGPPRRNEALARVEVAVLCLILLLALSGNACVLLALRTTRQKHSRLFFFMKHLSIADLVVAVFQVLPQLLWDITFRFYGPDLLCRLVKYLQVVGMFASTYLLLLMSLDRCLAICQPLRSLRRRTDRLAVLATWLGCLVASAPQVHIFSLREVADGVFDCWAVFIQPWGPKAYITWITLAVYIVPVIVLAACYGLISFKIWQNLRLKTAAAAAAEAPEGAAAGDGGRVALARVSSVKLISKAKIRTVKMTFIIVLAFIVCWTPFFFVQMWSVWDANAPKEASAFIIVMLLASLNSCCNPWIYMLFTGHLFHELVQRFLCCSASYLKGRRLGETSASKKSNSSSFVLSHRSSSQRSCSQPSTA
It counts as cell-based. The procedure:
Plasmid constructs were described previously (Amina et al. 2010). Human embryonic kidney HEK‐293 cells were maintained in Dulbecco's Modified Eagle's Medium (DMEM) supplemented with 10% fetal bovine serum (FBS) and Geneticin G418 100 μg/mL at 37°C in a humidified atmosphere of 95% air and 5% CO2. Cells were grown in culture dishes to 80–90% confluence and transfected with the expression plasmid pcDNAHOXTR‐376R or pcDNA3(+) (Invitrogen, Carlsbad, CA) (MOCK‐transfected cells), using FuGENE HD Transfection Reagent (Roche, Basel, Switzerland) in accordance with the manufacturer's instructions.
We measured [Ca^2+]i using the fluorescent Ca^2+ indicator fura‐2‐acetoxymethyl ester (fura‐2/AM). Transfected HEK‐293 cells were loaded with fura‐2/AM to a final concentration of 1 μmol/L in complete medium and incubated at 37°C as reported previously (Ma et al. 2013). After 30‐min loading, the cells were washed three times with HEPES‐buffered saline (HBS) solution (145 mmol/L NaCl, 5 mmol/L KCl, 1 mmol/L MgCl2, 20 mmol/L HEPES‐NaOH, 2 mmol/L CaCl2, 20 mmol/L glucose, pH 7.4). The fluorescence of the cells loaded with fura‐2/AM was then measured at 37°C, at the determined sites, through a pinhole (10–20 μm in diameter). We used alternating excitation wavelengths of 340 and 380 nm in a Ca^2+ microspectrofluorometric system (IX‐73 Model; Olympus, Tokyo, Japan) and Metafluor software (Molecular Devices, Sunnyvale, CA), as described previously (Hashii et al. 2000). […] The ratio of fluorescence at 340 nm and 380 nm (F340/F380) was used to determine [Ca^2+]i. All data were normalized to the baseline fluorescence (F0) recorded 10 s before addition, and given as F/F0 where F – maximal ratio of fluorescence after drug's application.

For series [2] the following is noted: male, ICR, mouse, in vivo, ip, 100 ng/kg.
Method: Thirty minutes or 24 h later, mice were anesthetized by an intraperitoneal injection of pentobarbital. Blood samples of 0.1 mL were collected by cardiac puncture in EDTA and aprotinin‐coated capillaries and centrifuged at 1600g for 15 min at 4°C. Plasma samples were collected and stored at –80°C until use.
(§1) Protein content was determined using a Bio‐Rad protein assay kit and bovine serum albumin assay standard (Bio‐Rad, Hercules, CA).
For series [3] the following is noted: male, ICR, mouse, in vivo, ip, 100 ng/kg, 0.5 h.
Method: Mouse CSF was obtained according the techniques described by Jin et al. (2007). […] Thirty minutes or 24 h later, the mice were anaesthetized with intraperitoneal injection of pentobarbital. The skin over the posterior neck was removed by two incisions, the first in the midline from the low cervical area to the anterior cranium and the second across the craniocervical junction. Subcutaneous tissue and nuchal muscles were exposed, sectioned along the rim of the occipital bone and then removed laterally unveiling the glistening clear arachnoid membrane overlying the cisterna magna. A micropipette was guided into the cisterna magna.
The micropipette was constructed by cutting a 30‐gauge needle with scissors to approximately 6–7 mm. The needle was then inserted 4–5 mm into the lumen of a 10 μL micropipette. CSF samples were obtained between 8.00 and 11.00 AM, and usually 5 μL of clear CSF was obtained.
as §1
The mark [4] stands for this setting: drug responses at 10^−8 mol/L relative to OT as 100%, HEK‐293 cells expressing pcDNAHOXTR‐376R, mean ± SEM, n = 25.

The structures appear in SMILES notation. Read-outs that look alike come from different tables or passages of the source. Marks after values point to notes of the source that are not given here.

In the case of `CCCCCCCCCCCCCCCC(=O)Oc1ccc(C[C@@H]2NC(=O)[C@@H](N)CSSC[C@@H](C(=O)N3CCC[C@H]3C(=O)N[C@@H](CC(C)C)C(=O)NCC(N)=O)NC(=O)[C@H](CC(N)=O)NC(=O)[C@H](CCC(N)=O)NC(=O)[C@H]([C@@H](C)CC)NC2=O)cc1` [LOT‐3, lipo‐oxytocin‐3], the “Percentage of maximum Ca^2+ mobilization” value in series [1] (10.0) is on record as 13.1 ± 1.8 ^a ^, ^c %.
Same read-out and setting: to `CCCCCCCCCCCCCCCC(=O)N[C@H]1CSSC[C@@H](C(=O)N2CCC[C@H]2C(=O)N[C@@H](CC(C)C)C(=O)NCC(N)=O)NC(=O)[C@H](CC(N)=O)NC(=O)[C@H](CCC(N)=O)NC(=O)[C@H]([C@@H](C)CC)NC(=O)[C@H](Cc2ccc(O)cc2)NC1=O` [LOT‐2, lipo‐oxytocin‐2] belongs 45.5 ± 0.83 ^a ^, ^b %.
In the case of `CCCCCCCCCCCCCCCC(=O)N[C@H]1CSSC[C@@H](C(=O)N2CCC[C@H]2C(=O)N[C@@H](CC(C)C)C(=O)NCC(N)=O)NC(=O)[C@H](CC(N)=O)NC(=O)[C@H](CCC(N)=O)NC(=O)[C@H]([C@@H](C)CC)NC(=O)[C@H](Cc2ccc(OC(=O)CCCCCCCCCCCCCCC)cc2)NC1=O` [LOT‐1, lipo‐oxytocin‐1], the “Percentage of maximum Ca^2+ mobilization” value in series [1] (setting [4]) was 12.6 ± 1.8 ^a ^, ^c %.
For `CC[C@H](C)[C@@H]1NC(=O)[C@H](Cc2ccc(O)cc2)NC(=O)[C@@H](N)CSSC[C@@H](C(=O)N2CCC[C@H]2C(=O)N[C@@H](CC(C)C)C(=O)NCC(N)=O)NC(=O)[C@H](CC(N)=O)NC(=O)[C@H](CCC(N)=O)NC1=O` [OT, Oxytocin], in series [1] (setting [4]), the “Percentage of maximum Ca^2+ mobilization” value amounted to 100%. Moreover, the “plasma level of OT” value in series [2] (0.5 h) was 0.695 ± 0.052 ng/mL; in series [2] (24 h), 0.547 ± 0.039 ng/mL. For the same compound, the “level of OT in the CSF” value in series [3] was determined as 0.347 ± 0.038 ng/mL.
